As usually defined, the IC50 is the concentration needed to halve the response being measured.

7 molecules from patent publication US11590109B2 (priority 2016, dated 2023) can be followed below.

For data set [1], the system named is Dengue Virus 2 (type 2 dengue virus). Description: Inhibition of viral replication (CPE) at cellular level, Dengue Virus 2 in Vero. The format is cell-based. Particulars: Dengue Virus 2 in host cell Vero; for IC50: CPE. An excerpt: Activity Test for Inhibition of Viral Replication at Cellular Level […]
The present inventors tested inhibitory effects of the compound of the present invention on cytopathic effects (CPE) caused by viral infection on mammalian cells.
Half-inhibitory concentration IC50 and half toxic concentration TC50 of the compound against Dengue Virus 2 (type 2 dengue virus) in host cell Vero (African green monkey kidney cell).

The nature of data set [2]: Determination of TC50 (half toxicity concentration) in RD cells. The following applies: human, host cell RD, EV71 table. Type of data set: cell-based.
For data set [3], the system named is H3N2 (influenza virus). Particulars: H3N2 in host cell MDCK.
Data set [4] relates to H1N1 (influenza virus). Particulars: H1N1 in host cell MDCK.
The subject of data set [5] is H7N9 (influenza virus). Particulars: H7N9 in host cell MDCK.
Data set [6] deals with EV71 (hand-foot-and-mouth virus). The following applies: EV71 in host cell RD.
Data set [7] can be described thus: in vitro. The following applies: African green monkey.
The test system of data set [8] is H3N2 (influenza virus). The experiment in a line: microbe, parasite or virus in culture. Particulars: Influenza A virus, H3N2, MDCK.
Data set [9] concerns H1N1 (influenza virus). The experiment in a line: microbe, parasite or virus in culture. The following applies: Influenza A virus, H1N1, MDCK.
Data set [10] relates to H7N9 (influenza virus). Description: microbe, parasite or virus in culture. Particulars: Influenza A virus, H7N9, MDCK.
Data set [11] has as its system EV71 (hand-foot-and-mouth virus). The experiment in a line: microbe, parasite or virus in culture. Particulars: Enterovirus A.
Data set [12] deals with RSV (human respiratory syncytial virus). The experiment in a line: Inhibition of viral replication (CPE) at cellular level, RSV in Vero. The following applies: for IC50: human respiratory syncytial virus, Vero; for SI (TC50/IC50): RSV in host cell Vero.
The test system of data set [13] is JEV (Japanese encephalitis virus). Description: Inhibition of viral replication (CPE) at cellular level, JEV in Vero. Particulars: for SI (TC50/IC50): JEV in host cell Vero; for IC50: Japanese encephalitis virus, Vero.
Data set [14] relates to Zika Virus. The experiment in a line: Inhibition of viral replication (CPE) at cellular level, Zika Virus in Vero. The following applies: for SI (TC50/IC50): Zika Virus in host cell Vero; for IC50: Zika virus, Vero.
Data set [15] in a line: in vitro. The following applies: dog, TC50.
[16] abbreviates: TC50, host cell Vero, Dengue Virus 2 table.
Setting [17] is: TC50, host cell Vero, RSV table.
The mark [18] stands for this setting: TC50, host cell Vero, Zika Virus table.

For `CN(/N=C/c1ccccc1C(=O)O)c1nc(-c2ccccc2Cl)cs1` [Compound 1, (E)-4-(2-chlorophenyl)-2-[1-methyl-2-(2-carboxybenzylidene)hydrazino]thiazole], the “SI (TC50/IC50)” value in [1] is 145; in [3], 125; in data set [4], 83; in data set [5], 11; in [6], 7.1; in data set [13], 80. Besides, in data set [14], the “SI (TC50/IC50)” value came out at 130. The IC50 turned out to be 0.11 µM in data set [1]; 0.12 µM in [8]; 0.42 µM in data set [9]; 2.32 µM in data set [10]; 0.14 µM in [11]; 4.34 µM in data set [12]. For the same molecule, the IC50 in [13] is 0.15 µM; in data set [14], 0.1 µM. The CC50 in data set [2] came to 1 µM; in [7], 12 µM; in data set [7] (setting [16]) it was 16 µM; in data set [7] (setting [17]), 31 µM; in data set [7] (setting [18]) it was 13 µM.

For the molecule `CCN(/N=C/c1ccccc1C(=O)O)c1nc(-c2ccccc2Cl)cs1` [Compound 2, (E)-4-(2-chlorophenyl)-2-[1-ethyl-2-(2-carboxybenzylidene)hydrazino]thiazole], the “SI (TC50/IC50)” value worked out at 68.6 in data set [1]; 15 in data set [3]; 8 in data set [4]; 8 in data set [5]; 4.3 in [6]; 4 in [12]. Moreover, the “SI (TC50/IC50)” value in [13] stood at 45.7; in data set [14] it was 53. For the same molecule, the IC50 in data set [1] amounted to 0.35 µM; in [8], 1.5 µM; in [9], 3.69 µM; in [10], 5.73 µM; in data set [11], 0.23 µM; in data set [12], 7.69 µM. The results for the IC50 in [13] and in data set [14] were 0.35 µM and 0.45 µM, respectively. The CC50 is 1 µM in data set [2]; 23 µM in data set [15]; 16 µM in data set [7]; 24 µM in data set [7] (setting [16]); 29 µM in [7] (setting [17]); 24 µM in [7] (setting [18]).

Take `Cc1ccc(/C=N/N(C)c2nc(-c3ccccc3Cl)cs2)c(C(=O)O)c1` [Compound 9, (E)-4-(2-chlorophenyl)-2-[1-methyl-2-(4-methyl-2-carboxybenzylidene)hydrazino]thiazole]: the “SI (TC50/IC50)” value in data set [1] is on record as 106; in data set [3], 137; in data set [4] it was 240; in data set [5], 83; in [6], 8.3; in data set [12], 15. In addition, the entries for the “SI (TC50/IC50)” value in data set [13] and in data set [14] were 73.3 and 100, respectively. The concentration for half-maximal inhibition (IC50) in data set [1] worked out at 0.17 µM; in [8] it was 0.19 µM; in data set [9], 0.27 µM; in [10] it was 0.53 µM; in data set [11], 0.12 µM; in data set [12], 2.27 µM. The concentration for half-maximal inhibition (IC50) in [13] and in data set [14] was 0.15 µM in each case. Besides, the CC50 in data set [2] was 1 µM; in data set [7] it was 11 µM; in data set [7] (setting [16]), 18 µM; in data set [7] (setting [17]) it was 35 µM; in data set [7] (setting [18]), 15 µM.

Regarding `Cc1ccc(/C=N/Nc2nc(-c3ccccc3Cl)cs2)c(C(=O)O)c1` [Compound 9-1], the “SI (TC50/IC50)” value in data set [1] is 125.8; in data set [3] it was 330; in data set [4] it was 653; in data set [5], 327; in data set [6], 9; in data set [12] it was 40. Also, the results for the “SI (TC50/IC50)” value in data set [13] and in data set [14] were 100 and 127, respectively. The IC50 in data set [1] is 0.31 µM; in data set [8] it was 0.27 µM; in [9], 0.36 µM; in [10] it was 0.67 µM; in data set [11], 0.33 µM; in data set [12], 3.36 µM. For the same molecule, the IC50 turned out to be 0.32 µM in data set [13] and 0.33 µM in data set [14]. The CC50 in data set [2] turned out to be 3 µM; in data set [7] it was 32 µM; in data set [7] (setting [16]), 39 µM; in [7] (setting [17]), 135 µM; in [7] (setting [18]), 42 µM.

For the molecule `O=C(O)c1cc(F)ccc1/C=N/Nc1nc(-c2ccccc2Cl)cs1` [Compound 10-1], the “SI (TC50/IC50)” value was 300 in data set [1]; 313 in data set [3]; 615 in data set [4]; 516 in data set [5]; 5.6 in data set [6]; 6.8 in data set [12]. Further, the results for the “SI (TC50/IC50)” value in [13] and in [14] were 306 and 523, respectively. Besides, the IC50 in data set [1] is 0.15 µM; in data set [8], 0.31 µM; in data set [9], 0.39 µM; in data set [10] it was 0.49 µM; in data set [11] it was 0.18 µM; in [12] it was 7.39 µM. The IC50 is 0.16 µM in [13] and 0.17 µM in data set [14]. Further, the CC50 stood at 1 µM in [2]; 49 µM in [7]; 45 µM in [7] (setting [16]); 50 µM in [7] (setting [17]); 89 µM in data set [7] (setting [18]).

Regarding `Cc1sc(N/N=C/c2ccccc2C(=O)O)nc1-c1ccccc1` [Compound 12-1], the “SI (TC50/IC50)” value in data set [1] turned out to be 59; in data set [3], 246; in data set [4] it was 362; in data set [5] it was 108; in data set [6], 5; in data set [12] it was 5.6. Further, the entries for the “SI (TC50/IC50)” value in data set [13] and in data set [14] were 138.7 and 110, respectively. Moreover, the IC50 in data set [1] worked out at 0.39 µM; in [8], 0.52 µM; in [9] it was 0.91 µM; in data set [10], 2.3 µM; in data set [11], 0.39 µM; in data set [12], 6.91 µM. In addition, the IC50 in data set [13] amounted to 0.31 µM; in [14], 0.3 µM. The CC50 in [2] worked out at 2 µM; in data set [7], 43 µM; in data set [7] (setting [16]), 23 µM; in [7] (setting [17]), 39 µM; in data set [7] (setting [18]), 33 µM.

Turning to `O=C(O)c1ccccc1/C=N/Nc1nc(-c2cc(Cl)ccc2Cl)cs1` [Compound 55, (E)-2-((2-(4-(2,5-dichlorophenyl)thiazol-2-yl)hydrazono)methyl)benzoic Acid], the “SI (TC50/IC50)” value was 110 in data set [1]; 45.6 in data set [3]; 50 in data set [4]; 6 in data set [6]; 19 in data set [12]; 206 in [14]. Moreover, the IC50 amounted to 0.63 µM in [1]; 12 µM in data set [8]; 8.2 µM in data set [9]; 6.9 µM in [10]; 0.51 µM in data set [11]; 8.2 µM in data set [12]. In addition, the IC50 in data set [14] came to 0.33 µM. Moreover, the CC50 was 3.1 µM in data set [2]; 547 µM in [15]; 69 µM in [7] (setting [16]); 154 µM in data set [7] (setting [17]); 68 µM in [7] (setting [18]).
